Reference: patent US20230173295A1, “Systems, Devices, and Methods for Gamma Entrainment using Sensory Stimuli to Alleviate Cognitive Deficits and/or Neuroinflammation Induced by Chemotherapy Agents” (Massachusetts Institute of Technology, priority 2020, published 2023)
Entries after “also recorded” stand apart in the source; their conditions may differ.

Key:
[1] = test system: C57/BL6J male mouse; assay: MTX induced chemo brain model: immunohistochemistry of brain slices; type: in vivo; details: MTX NS
Procedure: 30˜40 μm thick vibratome sectioned brain slices were washed in PBS, then incubated in a blocking solution (3% normal donkey serum (Millipore Sigma, S30-M) and 0.3% Triton X-100 (Sigma-Aldrich, T8787-100ML) in PBS) for 2 hrs. Then, slices were treated with a blocking solution containing α-Iba1 (1:500, Abcam, ab178846), α-GFAP (1:1000, Novus Biologicals, NBP1-05198), α-MBP (1:500, Millipore, AB9348), α-yH2AX (1:500, EMD Millipore, 05-636), α-Iba1 (1:500, SYSY, 234004), α-Olig2 (1:200, Abcam, ab109186), α-Pdgfra (1:100, Abcam, ab90967) and α-Dcx (1:500, Cell signaling technology, 4604S) in a 4° C.-10° C. controlled cold room for 2 overnight. […]
OFT, MWM behavior was tracked with a behavior tracking software (EthoVision XT, Nodulus). NOR and puzzle box behavior was scored by manual counting. Zeiss LSM 710 and Zeiss LSM 880 confocal microscope with Zen software was used to capture fluorescence images. A 3D image analysis software (IMARIS, Bitplane) was used to score Iba1 and GFAP positive voxels, and the area covered by MBP, ventricle size and cell number counting was scored with ImageJ software. […]

[2] = test system: C57/BL6J male mouse; assay: MTX induced chemo brain model: open field test (OFT); type: in vivo; details: MTX vs PBS
Procedure: Animals were placed in the center of 45×45 cm×40 cm (W×L×H) white acrylic box and their movement were tracked with a behavior tracking software (EthoVision XT, nodulus) for 10 min. 22.5 cm×22.5 cm area in the center of the box was marked as ‘center area’.
(§1) OFT, MWM behavior was tracked with a behavior tracking software (EthoVision XT, Nodulus). NOR and puzzle box behavior was scored by manual counting. Zeiss LSM 710 and Zeiss LSM 880 confocal microscope with Zen software was used to capture fluorescence images. A 3D image analysis software (IMARIS, Bitplane) was used to score Iba1 and GFAP positive voxels, and the area covered by MBP, ventricle size and cell number counting was scored with ImageJ software. Researcher was blinded for the experimental group during data analysis.

[3] = test system: C57/BL6J male mouse; assay: MTX induced chemo brain model: novel object recognition (NOR); type: in vivo; details: MTX without GENUS
Procedure: Animals were habituated in an OFT box for 10 min, 3 consecutive days. On the 4th day, two identical wooden blocks (Premium wooden building blocks set, Cubbie Lee) were placed in the chamber, and animals were allowed to explore the objects for 5 min, then the animals were returned to their home cage for 5 min. In the test phase, one of the wooden block is switched to a novel wooden block with a different shape, and the time spent exploring the familiar and new object was measured for 10 min. Discrimination ratio was calculated as time spent to explore the new object divided by the sum of time spent to explore both old and new object.
as §1

[4] = test system: C57/BL6J male mouse; assay: MTX induced chemo brain model: puzzle box test; type: in vivo; details: MTX treatment
Procedure: Animals were placed in a testing arena containing a lighted (55 cm×28 cm) and a dark (15 cm×28 cm) compartment with a connecting tunnel (4 cm×4 cm×2.5 cm), facing the farthest wall from the dark compartment. 3 trials were performed for 3 days. 1 introductory period without any obstacles blocking the tunnel and 2 ‘easy task’ in which animals have to pass a corridor (4 cm×4 cm×12 cm). On day 2, 1 ‘easy task’ and 2 ‘intermediate task’ in which the corridor is blocked with sawdust and the animals have to dig through to reach the dark chamber were performed. On day 3, 1 ‘intermediate task’ and 2 ‘hard task’ where the tunnel was plugged with a tissue were performed. Time of the first entry to the dark chamber was recorded for every trials.
as §1

[5] = test system: C57/BL6J male mouse; assay: MTX induced chemo brain model: Morris water maze (MWM) test; type: in vivo
Procedure: A circular cylinder with 122 cm diameter was filled with tap water (22° C.-24° C.) and a white paint was added to make the water opaque. The area was divided into 4 equal quardrants and a 10 cm diameter platform was placed in the center of the target quardrant (TQ), the platform being 1 inch lower than the water level. On the first day of training, animals were placed on the platform for 30 seconds, and then retrieved from the water (priming). After 1 minute of priming, animals were placed into the chamber facing the chamber wall. Time to reach the platform was measured when the animal was sitting on the platform for >1s. For 5 consecutive days, animals performed two trials, spaced 1 min. After 5 days of training, the platform was removed from the chamber, and the animals were placed in the center of the chamber. For 1 min duration, time spent in TQ were measured Novel Object Recognition (NOR)
as §1

[6] = test system: C57/BL6J male mouse; assay: MTX induced chemo brain model: survival rate and body weight; details: 100 mg/kg MTX i.p.
Procedure: P21 C57/BL6J male mouse received i.p. injection of either 100 mg/kg MTX or volume-matched PBS on P21, P28, P35 (i.e., 21 days after birth/21 days old, 28 days old, 35 days old) (FIG. 1A). Stim (S) group received 1 hr of 40 Hz audio+visual sensory stimulation immediately after the first injection, and then received 1 hr stimulation every day after that day's injection until the day before they were sacrificed. No stim (NS) group stayed under a dim light for 1 hr immediately after the first injection, and then stayed under a dim light for 1 hr every day until the day before they were sacrificed. Every animal was single-caged in a caged covered with a black-plastic bag on every wall but one side for the duration of 1 hr stim/sham period and then group housed with their littermates.
Another chemotherapeutic agent, methotrexate (MTX)-induced chemo brain animals were tested.

CN(Cc1cnc2nc(N)nc(N)c2n1)c1ccc(C(=O)N[C@@H](CCC(=O)O)C(=O)O)cc1 [MTX, methotrexate]
Iba1 signal in corpus callosum [1]: dramatically increased; also recorded: significantly higher
locomotion in OFT [2]: neither GENUS nor methotrexate (MTX) treatment affected locomotion
time spent in center area during OFT [2]: GENUS but not MTX significantly increased time spent in center area
NOR: time exploring novel and familiar object [3]: spent comparable time exploring noble and familiar object
puzzle box test performance [4]: cognitive impairment
MWM performance: swimming speed, spatial learning and memory ([5]; PBS NS, MTX NS, PBS S, MTX S): comparable performance in swimming speed, spatial learning and memory
MWM learning curve ([5]; mouse, in vivo): neither MTX nor GENUS altered learning curve
MWM swimming speed ([5]; mouse, in vivo): neither MTX nor GENUS altered swimming speed
survival rate ([6]; 1 week after the first administration): ~60%
lethality ([6]; within 1 week after the first MTX injection): 40%
